Patent US11267965B2, “Polymeric materials for biomedical applications” (Aleo BME, Inc., priority 2015, dated 2022)

Tests used:
PC-12 cells = experiment: PC12 cell neurite outgrowth assay; format: cell-based, rat
Schwann cells [1] = experiment: Schwann cell migration, transwell model; format: cell-based; conditions: 4 hr migration, compared to 4, 100 and 200 mg/L folate
Schwann cells [2] = experiment: Schwann cell migration, microchannel-based migration assay (live cell imaging); conditions: left reservoir 4 mg/L folate, right reservoir 50 mg/L folate; channel width 200 μm
[3] = test system: MAP-2 protein expression in PC12 cells; experiment: Western blot analysis of microtubule-associated protein-2 (MAP-2) in PC12 cells; format: cell-based, rat; conditions: 14 days
Schwann cells [4] = experiment: Quantification of global DNA methylation; format: cell-based; conditions: second day of culture
PC12 cells = experiment: Quantification of global DNA methylation; format: cell-based, rat; conditions: second day of culture

Question: What does the source list for `Nc1nc2ncc(CNc3ccc(C(=O)N[C@@H](CCC(=O)O)C(=O)O)cc3)nc2c(=O)[nH]1` [folic acid]?
Answer: neurite outgrowth (average neurite length) (PC-12 cells; 50-100 mg/L folate with 50 ng/mL NGF, day 7, control medium 1.3 mg/L folate <100 μm): > 150 μm; folic acid concentration with highest neurite outgrowth (PC-12 cells; day 3 of culture, neural differentiation medium with 5 ng/ml neural growth factor): 50 mg/L; PC-12 neurite outgrowth rate (PC-12 cells; folic acid supplemented medium): promote PC-12 neurite outgrowth rate in a dose-dependent manner; optimal folic acid supplement concentration for promoting PC-12 differentiation and neurite outgrowth (PC-12 cells; within the concentrations investigated): 50 to 100 mg/L; folate concentration of medium toward which the highest number of Schwann cells migrated (Schwann cells [1]): 50 mg/L; Schwann cell migration direction in microchannels (Schwann cells [2]): migration of Schwann cell from low folate medium to high folate medium; MAP-2 protein expression relative to control medium (1.3 mg/L folate) ([3]; 50 mg/L folate, in the presence of NGF (50 ng/mL)): 2.56 folds; MAP-2 protein expression relative to control sample (1.3 mg/L folate) ([3]; 50 and 100 mg/L folate, in the absence of NGF): 2.22-2.30 folds; folate concentration with highest global DNA methylation (Schwann cells [4]): 50 mg/L; folate concentration with highest global DNA methylation (PC12 cells): 50 mg/L
